Assays:
[1] = system: CT26 colon adenocarcinoma; assay: Growth inhibition of footpad CT26 colon adenocarcinoma in CB6F1 mice, second series (FIGS. 2 and 3); type: in vivo, mouse; details: for Inhibition of tumor growth, schedule ending before inoculation: 12 consecutive days, ending one day before tumor inoculation; for Anticancer activities against established footpad CT26 colon adenocarcinoma: CB6F1 mice, in words; for Deaths before stated day after tumor inoculation: FIG. 2 experiment, palpable CT26 tumors, 10 animals per group; for Inhibition of growth of palpable CT26 tumors (in words): daily i.p. in 2.2 ml saline, pH 6.2, 12 days, starting after tumors palpable, equimolar amounts
Procedure: A further series of tests are conducted whereby tumors are inoculated by injections of 2.5×10^5 CT26 cells (over 90% viability) in 50 μl of phosphate-buffered saline into the right hind footpad of CB6F1 mice. The treatments were initiated at a variety of times after inoculation of the tumors. The injection schedules started either 1 or 5 days after tumor inoculation when none of the tumors are palpable or when the tumors are clearly palpable (average calculated weight of 100 mg), which occur in 100% of the inoculated mice after 8-11 days. Mice are randomized, divided into groups, and injected daily with 2.2 ml of saline, adenosine, AMP, or ATP (compounds are in sterile saline solutions at concentrations of 25 mM with AMP and ATP solutions adjusted to pH 6.2). Injections are administered intraperitoneally with 30 gauge needles and the mice are lightly anesthetized with […]. The mice are weighed and tumor sizes measured before the start of the treatment schedule and every three days during and after the treatment schedule. These determinations are performed before injections during the treatment period.
In particular, see FIG. 2. FIG. 2 illustrates inhibition of tumor growth (---) and host weight loss (-) in tumor-bearing mice by treatment with adenine nucleotides. Mice (CB6F1, 8 week old males) bearing palpable CT26 footpad tumors (on day 9 after tumor inoculation) are treated with saline (.smallcircle.), adenosine (o), AMP (Δ), or ATP (.quadrature.) as described herein. An untreated group is also included (x). Arrows indicate days of injection.
The magnitude of the antitumor activities of AMP and ATP depends to a small extent on the pH of the solution administered intraperitoneally. This property is probably related to the number of negative charges on the phosphate groups (the pKa of the secondary phosphate is around 6.6). AMP and especially ATP have some buffering capacity, and at a pH below 6.6 they carry a smaller net charge than at a physiological pH. The lower charge of these molecules enhances the initial (first hour) transport of AMP and ATP across the peritoneal membrane and into the systemic circulation (see Torres, et al., 1978, Pharmacol., 17, 330-340). […] The treatment schedule of palpable CT26 tumors which is illustrated in FIG. 2 consistently yields 10-20% of "cures". These mice remain tumor-free for at least two months.
FIG. 3 further illustrates inhibition of host weight loss in tumor-bearing animals by treatment with adenine nucleotides. Mice (CB6F1, males, 7 weeks old, in A, 10 weeks old in B, […]) with saline (.smallcircle.), adenosine (o), AMP (Δ), or ATP (.quadrature.) are initiated 1 day (A), 5 days (B), or 9 days after tumor inoculation (when all the tumors were palpable) (C). Arrows indicate days of injection. Experimental procedures were outlined in the text.

CAPAN-1 xenografts = assay: Arrest of growth of CAPAN-1 xenografts in athymic nu/nu mice (Table 2); type: in vivo, human; details: 1 ml of 50 mM i.p.
Procedure: The tumor cell lines employed were CT26, a mouse undifferentiated, aggressive colon carcinoma, and CAPAN-1, a well-differentiated human pancreatic adenocarcinoma. […] The cells are shown to be free of Mycoplasma contamination. Cells are cultured at 37° C. in a humidified atmosphere of 5% CO2 /95% air in MEM supplemented with antibiotics (100 units of penicillin per ml and 100 μg streptomycin per ml), L-glutamine (2 mM), non-essential amino acids (0.1 mM), sodium pyruvate (1 mM), and 10% fetal bovine serum.
In the tests, females and males CB6F1 mice (a standard F1 hybrid of BALB/C and C57BL/6) obtained from Jackson Laboratories, Bar Harbor, Maine and athymic outbred NCr nu/nu mice (males and females) from the Department of Radiation Medicine, Massachusetts General Hospital, Boston, Mass. 02114 are used. All the mice are kept for at least two weeks before inoculation of the tumors and the start of treatment and are 7-9 weeks old (CB6F1) or 6-7 weeks old (athymic nu/nu) at the start of the procedure. Animals weigh 20-25 g (females) or 23-28 g (males), are housed 5-12 per cage, and have ad libitum access to food and water.
(§1) Tumor cells are removed from subconfluent cultures by a mild trypsin-EDTA treatment, the cell pellet is washed once with MEM without serum and the cells are suspended at the desired cell numbers in PBS (phosphate-bufferedsaline, 8 g NaCl, 0.2 g KCl, 1.15 g Na2 HPO4.7H2 O, and 0.2 g KH2 PO4 per liter). Cell suspensions are shown to be at least 90% viable by trypan blue exclusion. Mice are injected subcutaneously in the right hind footpad with tumor cells suspended in 50 μl of PBS. The regular protocol (unless otherwise stated) consists of daily i.p. injections of 1 ml of 0.85% NaCl solution or 1 ml of 50 mM of AMP, ADP, or ATP in 0.85% NaCl (from stock solutions adjusted to pH 6.2) starting one day after tumor inoculation and given for ten consecutive days.
(§2) Injections are administered with 30 gauge needles and the mice are lightly anesthetized with ether. The mice are weighed before the start of treatment and once a week during and after treatment. After the tumors become palpable, tumor sizes are determined every three days. The animals are sacrificed, tumors are excised and weighed before they reach 10% of the animals' weight.
The effects of AMP, ADP, and ATP on human tumor xenografts in nude mice were evaluated utilizing the pancreatic ductal adenocarcinoma CAPAN-1 (see Kyriazis AP, Kyriazis AA, Scarpelli DG, Fogh J, Rao SM, Lepera R., "Human Pancreatic Adenocarcinoma Line CAPAN-1 in Tissue Culture and the Nude Mouse", Am. J. Pathol., 1982, 106, 250-260).
Treatment schedules consist of single daily i.p. injections for 10 consecutive days, starting one day after tumor inoculation. Tumor burden is relatively low (0.5-1×10^5 cells implanted) and tumor growth is slow (tumors became palpable 4-6 weeks after inoculation).

[2] = Host toxicity (deaths, body weight) in treated mice; type: in vivo, mouse; details: for Deaths: i.p. injections of adenine nucleotides
Procedure: as §1, §2

tumor cells = details: low doses; prior application Ser. No. 397,897; cited from earlier work
human subjects = details: slow injections or infusions of the same dose (40 mg); cited from earlier work
[3] = Rate of extracellular ATP degradation by mouse blood in vitro (Table 6); type: in vitro ADME; details: 1 mM, 37° C.
Procedure: *Blood (450 μl) was withdrawn into a syringe containing either 50 μ
of citratedextrose or 50 μl of heparin (100 U/ml). Whole blood was the
added to 1 mM of [^3 H]ATP in saline (25 μl) and at various time
points blood aliquots (90 μl) were removed and centrifuged. Plasma (20
μl) was withdrawn and added to 1 ml of icecold trichloroacetic acid.
Thin layer chromatography on poly(ethylene)imine cellulose was performed
according to published procedures. The rate of degradation of 1 mM of
[^3 H]ATP was linear for mouse or human blood during the initial 30
minute incubation at 37° C.

[4] = experiment 4, 11 F, 0.5 × 10^5 cells, 10 weeks
[5] = experiment 5, 10 F, 0.5 × 10^5 cells, 9 weeks

Structure (SMILES): Nc1ncnc2c1ncn2[C@@H]1O[C@H](COP(=O)(O)O)[C@@H](O)[C@H]1O [AMP, adenosine 5'-monophosphate]
- Inhibition of tumor growth, schedule ending before inoculation [1]: No inhibition of tumor growth
- Anticancer activities against established footpad CT26 colon adenocarcinoma [1]: exhibit significant anticancer activities
- Deaths before stated day after tumor inoculation [1]: No deaths occurred before day 22
- Inhibition of growth of palpable CT26 tumors (in words) [1]: significantly inhibit the growth of this fast-growing tumor
- Inhibition of tumor growth relative to ATP ([1]; treatment initiated one day after tumor inoculation): as effective as ATP in inhibiting tumor growth
- Arrested tumors/implanted tumors (CAPAN-1 xenografts; [4]): 7/11
- Arrested tumors/implanted tumors (CAPAN-1 xenografts; [5]): 6/10
- Side-effects relative to ATP ([2]; host animals): less side-effects than ATP
- Deaths [2]: did not cause any deaths
- Effect on growth of tumor cells in vitro (in words) (tumor cells): would not inhibit cellular growth

Structure (SMILES): Nc1ncnc2c1ncn2[C@@H]1O[C@H](COP(=O)(O)OP(=O)(O)OP(=O)(O)O)[C@@H](O)[C@H]1O [ATP, adenosine 5'-triphosphate]
- Inhibition of tumor growth, schedule ending before inoculation [1]: No inhibition of tumor growth
- Anticancer activities against established footpad CT26 colon adenocarcinoma [1]: exhibit significant anticancer activities
- Deaths before stated day after tumor inoculation [1]: No deaths occurred before day 22
- Inhibition of tumor growth, palpable tumors, relative to AMP ([1]; applied to palpable tumors (FIG. 2)): more pronounced than that obtained with AMP
- Inhibition of growth of palpable CT26 tumors (in words) [1]: significantly inhibit the growth of this fast-growing tumor
- Arrested tumors/implanted tumors (CAPAN-1 xenografts; experiment 2, 5 F, 1 × 10^5 cells, 7 weeks): 4/5
- Arrested tumors/implanted tumors (CAPAN-1 xenografts; experiment 3, 5 F, 1 × 10^5 cells, 6 weeks): 3/5
- Arrested tumors/implanted tumors (CAPAN-1 xenografts; [4]): 8/11
- Arrested tumors/implanted tumors (CAPAN-1 xenografts; [5]): 8/10
- Deaths [2]: Occasionally, an animal treated with ATP or ADP would die a few hours after injection
- Response to slow injection or infusion in human subjects (human subjects): much lesser or no response at all
- Effect on growth of tumor cells in vitro (in words) (tumor cells): marked inhibition of DNA synthesis and arrest of significant populations of cells in the S phase of their cycle
- Rate of extracellular ATP degradation ([3]; citrate): 6.87 pmol/µL/min
- Rate of extracellular ATP degradation ([3]; heparin): 10.21 pmol/µL/min
